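These data come from cells grown in 96-well plates and exposed to compound for 48 hours at five concentrations. TGI is the concentration that stops growth completely.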
Each compound was assayed on A498 renal (assay: NCI-60 cell line screen, 48 h).
Work on `CC(C)CCCCCCCCCCCCC(=O)NCC(=O)NC1C(C)OC(Nc2ncnc3c2ncn3C)C(O)C1O` (configuration not stated) yielded a TGI of 24.2 µM. `C=C(C1=CC(=O)C(C)(C)O1)[C@@H]1CC=C([C@@H]2CC[C@H]3[C@@]2(C)CC[C@H]2C(C)(C)C(=O)[C@H](O)C[C@]32C)[C@H](O)O1` was tested, and the TGI was 9.89 µM. `Cc1cn(C2CC(n3cc(Cn4cc(I)c(=O)[nH]c4=O)nn3)C(CO)O2)c(=O)[nH]c1=O` (configuration not stated) was tested, and the TGI was greater than 100 µM. `CNC(=O)OCC1=C(COC(=O)NC)C(C)N(c2ccc(OC)cc2)C1` (configuration not stated) gave a TGI of 1.74 µM. Work on `c1ccc(N=C2SC3=Nc4cccc5cccc(c45)N3C2=Nc2ccccc2)cc1` yielded a TGI greater than 100 µM. Work on `O=C1CCC(=O)N1n1c(Cc2ccccc2)n[nH]c1=O` yielded a TGI greater than 100 µM. In the case of `O=C(O)CN(CC(=O)O)C1CCCCC1N(CC(=O)O)CC(=O)NCCN=C=S` (configuration not stated), the TGI is reported as greater than 100 µM. `Cc1cn(C2CC(N(O)C(N)=O)C(CO)O2)c(=O)[nH]c1=O` (configuration not stated) gave a TGI greater than 100 µM. With `O=C1CCC23CC(C=CC=C12)n1c(=O)n(-c2ccccc2)c(=O)n13` (configuration not stated) the TGI was greater than 100 µM. `O=C(O)c1cccc2c1/C(=N/Nc1ccccc1)CC2` showed a TGI greater than 100 µM. With `O=C(Cc1cccs1)N[C@@H]1C(=O)N2C(C(=O)OC(c3ccccc3)c3ccccc3)=C(CO)CS[C@H]12` the TGI was greater than 100 µM. For `CC1=C(C)[C@@]2(C)O[C@@]2(C)O[C@@]2(C)O[C@@]12C`, the TGI was greater than 100 µM. `Cc1ccccc1-n1c(=O)c2ncn(CCCl)c2n(-c2ccccc2C)c1=S` was tested, and the TGI was greater than 100 µM.

The compounds below were run on HCT-116 colon (assay: NCI-60 cell line screen, 48 h).
Compound `O=c1[nH][nH]c(=O)n1Cc1ccccc1Cn1c(=O)[nH][nH]c1=O` has a TGI greater than 100 µM. `CCNC(=S)N/N=C/c1cc([N+](=O)[O-])ccc1O` showed a TGI of 40.8 µM. For `CCOC(=O)c1c2ccccc2n2c(N)c(C(N)=O)nnc12`, the TGI was greater than 100 µM. With `Cc1cc(N(CCC#N)CCC#N)ccc1/C(N=Nc1ccc(Cl)cc1)=N\NC(=O)c1ccccc1` the TGI was greater than 100 µM. `CC[C@@]1(O)C(=O)OCc2c1cc1n(c2=O)Cc2c-1nc1ccccc1c2/C=N\NC(=O)CN` gave a TGI of 16.1 µM. Work on `CCc1ccc(CCN2CCCCC2)nc1` yielded a TGI greater than 100 µM. Work on `CNC(=O)C(C)C1CCC2(C)C=CC(=O)C(C)=C2C1O` (configuration not stated) yielded a TGI greater than 100 µM. With `O=C(NNC(=O)c1ccccc1SSc1ccccc1C(=O)NNC(=O)c1ccccc1S)c1ccccc1S` the TGI was greater than 65.1 µM. `CCOC(=O)C(NC(C)=O)(Nc1ccc(F)cc1)C(F)(F)F` (configuration not stated) was tested, and the TGI was greater than 100 µM. Compound `CCOc1cc2c(cc1O)/C(=N\OC)C[C@@H]1[C@@H]2CC[C@]2(C)[C@@H](O)CC[C@@H]12` has a TGI greater than 38.7 µM. Compound `O=C1/C(=C/c2ccc(O)cc2)CC/C1=C\c1ccc(O)cc1` has a TGI greater than 100 µM. `CC(C)C1/C(=N/O)CC(c2ccccc2)N(N=O)C1c1ccccc1` (configuration not stated) showed a TGI of 85.7 µM. Compound `CC1(C)N=C(/C(Cl)=[N+](/[O-])C(=O)c2ccc(F)cc2)C(C)(C)N1O` has a TGI of 30.6 µM. `COC(=O)[C@H](Cc1c[nH]c2ccccc12)NP(=O)(O)OCC1C=CC(n2cc(C)c(=O)[nH]c2=O)O1` (some centres not stated) showed a TGI greater than 100 µM. Compound `COc1cc(/C=C2\S/C(=N/Nc3nc(-c4ccc(Br)cc4)cs3)NC2=O)cc(OC)c1OC` has a TGI of 17.2 µM. In the case of `COC(=O)[C@H]1CO[C@@H](C(C)(C)C)N1C(=O)N1C=CC(=O)C[C@@H]1C`, the TGI is reported as greater than 100 µM. `O=C(Nc1ccc(C2=NCCN2)cc1)c1cncc(C(=O)Nc2ccc(C3=NCCN3)cc2)c1` was tested, and the TGI was greater than 100 µM. `Clc1ccc(/C=C/c2nc3ccccc3s2)cc1Cl` was tested, and the TGI was 63.8 µM. `Cc1ccc(SCC(CSCCO)OCn2cnc3c2NC(N)=NC32OCCO2)cc1` (configuration not stated) was tested, and the TGI was greater than 100 µM. `C(/c1ccco1)=c1/nc(-c2ccccc2)n2c1nc1ccccc12` gave a TGI of 71.1 µM. `COC(=O)C1CCC(=O)N1C(c1ccccc1)c1ccc(OC)c(OC)c1` (configuration not stated) was tested, and the TGI was greater than 100 µM. In the case of `Oc1cccc2c(Cl)ccnc12`, the TGI is reported as 15.2 µM. `N#CC1=C(N)N(c2ccccc2)C(c2ccco2)C1(C#N)C#N` (configuration not stated) showed a TGI greater than 100 µM. In the case of `Cc1cc(=O)[nH]c(NN2C(Cl)C(=O)C2c2ccccc2O)n1` (configuration not stated), the TGI is reported as greater than 42.7 µM. With `COc1ccc(/C=C2\CCC(C)C3=C2NC(=S)NC3c2ccc(OC)c(OC)c2)cc1OC` (configuration not stated) the TGI was greater than 31.6 µM. For `COc1ccc2c(=O)c(O)c(-c3ccc(OC)c(OC)c3)oc2c1`, the TGI was greater than 100 µM. `COc1ccc(CNc2nc(NCc3ccc(OC)c(OC)c3)nc(NC3CCCCC3)n2)cc1` showed a TGI greater than 100 µM. For `C=C(C1=CC(=O)C(C)(C)O1)[C@@H]1CC=C([C@@H]2CC[C@H]3[C@@]2(C)CC[C@H]2C(C)(C)C(=O)[C@H](O)C[C@]32C)[C@H](O)O1`, the TGI was 3 µM. `Cc1cn(C2CC(n3cc(Cn4cc(I)c(=O)[nH]c4=O)nn3)C(CO)O2)c(=O)[nH]c1=O` (configuration not stated) showed a TGI greater than 100 µM. In the case of `CNC(=O)OCC1=C(COC(=O)NC)C(C)N(c2ccc(OC)cc2)C1` (configuration not stated), the TGI is reported as greater than 100 µM. `O=C1CCC(=O)N1n1c(Cc2ccccc2)n[nH]c1=O` was tested, and the TGI was greater than 100 µM. Work on `O=C(O)CN(CC(=O)O)C1CCCCC1N(CC(=O)O)CC(=O)NCCN=C=S` (configuration not stated) yielded a TGI greater than 100 µM. For `Cc1nc(C(N)=S)sc1/C(CC(=O)C(=O)Nc1cccc2ccc(O)cc12)=N\NC(=O)c1ccncc1`, the TGI was greater than 100 µM. Compound `Cc1cn(C2CC(N(O)C(N)=O)C(CO)O2)c(=O)[nH]c1=O` (configuration not stated) has a TGI greater than 100 µM. `O=C1CCC23CC(C=CC=C12)n1c(=O)n(-c2ccccc2)c(=O)n13` (configuration not stated) showed a TGI greater than 100 µM. `O=C(O)c1cccc2c1/C(=N/Nc1ccccc1)CC2` gave a TGI greater than 100 µM. With `O=C(Cc1cccs1)N[C@@H]1C(=O)N2C(C(=O)OC(c3ccccc3)c3ccccc3)=C(CO)CS[C@H]12` the TGI was greater than 100 µM. `CC1=C(C)[C@@]2(C)O[C@@]2(C)O[C@@]2(C)O[C@@]12C` was tested, and the TGI was greater than 100 µM. Work on `Cc1ccccc1-n1c(=O)c2ncn(CCCl)c2n(-c2ccccc2C)c1=S` yielded a TGI greater than 100 µM.

From PubChem BioAssay (NCI)
